{"source": "patent US8273745B2", "about": "“Polycyclic acid compounds useful as CRTH2 antagonists and antiallergic agents” (Astellas Pharma Inc, priority 2006, dated 2012)", "key": {"[1]": {"biological_target": "T1, human CRTH2 (Homo sapiens, UniProt Q9Y5Y4)", "T1 construct": "expressed in transfected cells; host or cells: HEK293 cells, stably transfected; membrane preparation", "T1 sequence (Q9Y5Y4 1-395)": "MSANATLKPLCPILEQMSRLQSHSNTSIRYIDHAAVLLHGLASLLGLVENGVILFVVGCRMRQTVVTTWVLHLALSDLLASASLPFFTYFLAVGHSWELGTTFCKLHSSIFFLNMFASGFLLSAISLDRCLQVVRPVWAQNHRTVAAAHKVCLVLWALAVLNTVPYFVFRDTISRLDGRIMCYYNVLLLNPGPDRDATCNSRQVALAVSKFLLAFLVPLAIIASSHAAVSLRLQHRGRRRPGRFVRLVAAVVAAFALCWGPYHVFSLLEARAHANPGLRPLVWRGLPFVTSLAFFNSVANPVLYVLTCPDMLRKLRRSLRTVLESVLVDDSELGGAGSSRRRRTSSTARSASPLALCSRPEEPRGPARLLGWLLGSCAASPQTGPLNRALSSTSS", "test": "Human CRTH2 binding assay (3H-labeled PGD2 binding, membranes of HEK293 cells transfected with human CRTH2)", "details": "membrane preparation of HEK293 cells with human CRTH2; 2 nM 3H-labeled PGD2; 4° C., 120 minutes; read-out: IC50 (nM), in vitro human CRTH2 binding assay", "method": "Human CRTH2 Binding Assay\nTo evaluate CRTH2 binding activities of example compounds, PGD2 binding assay was performed as modifications of former paper (Journal of pharmacology and experimental therapeutics, 2003, 306(2), pp. 463-470).\nHEK293 cells stably transfected with human CRTH2 cDNA were suspended in assay buffer (10 mM BES, 1 mM EDTA, 10 mM MnCl2, pH=7.0) and broken into pieces by strong mixture using injection needle. The membrane preparation at the concentration of 50 μg protein was mixed with various concentrations of compounds. Binding reaction was initiated by an addition of ^3H-labeled PGD2 to a final concentration of 2 nM and the reaction mixture was incubated at 4° C. for 120 minutes. The reaction was terminated by filtration using GF/B plate (PerkinElmer) which was washed with wash buffer (10 mM BES, 0.01% BSA). ^3H-labeled PGD2 which binds to CRTH2 were captured on this plate and the radioactivity was measured. The total and non-specific binding were determined in the absence and presence of 10 μM DK-PGD2. The binding activity of each compound was expressed as IC50 value."}, "[2]": {"tested_on": "Guinea Pig antigen-induced hyper-responsiveness", "test": "Guinea Pig antigen-induced hyper-responsiveness model", "type": "in vivo", "details": "OVA-sensitized male Hartley guinea pigs, AUC of peak inflation pressure versus methacholine dose", "method": "Guinea Pig Antigen-Induced Hyper-Responsiveness Model\nTo evaluate anti asthma efficacy of the compounds, they were administered to Guinea Pig antigen-induced hyper-responsiveness model which is cited in the literature with minor modifications (Agents Actions, 1992, 37, pp. 162-164).\nMale Hartley guinea pigs were actively sensitized to ovalbumin (OVA) by i.p. injection of 20 mg in 0.9% saline at day 0 and 1 mg at day 2. Animals were exposed for 10 minutes on days 14-21 to an aerosol of 0.5% OVA solution in 0.9% saline or saline alone generated from a nebulizer. All animals were treated with compound by p.o. administration 60 minutes prior to the aerosol and 1 mg/kg pyrilamine by i.p. injection 30 minutes prior to the aerosol. On day 22, animal was anesthetized with urethane (1.5 g/kg). The trachea was cannulated and the animal was mechanically ventilated (60 strokes/minute; 1 mL/100 g body weight) with a small animal respirator. Pulmonary inflation pressure (PIP) was monitored with a pressure transducer. Doses of methacholine (0-14 μg/kg) were administered sequentially (3 minutes intervals) by the right jugular vein to each animal. The area under the peak inflation pressure versus methacholine dose curve (AUC) was calculated for each animal."}}, "data": [{"compound": "O=C(O)COc1cccc(CCCn2cc(C(c3ccccc3)c3ccccc3)ccc2=O)c1", "note": "[Example 10, (3-{3-[5-(diphenylmethyl)-2-oxopyridin-1(2H)-yl]propyl}phenoxy)acetic acid]", "values": [{"measurement": "IC50", "setting": "[1]", "value": 42, "unit": "nM"}, {"measurement": "inhibition (%)", "setting": "[2]; dose 10 mg/kg p.o.", "value": 100, "unit": "%"}]}, {"compound": "O=C(O)COc1cccc(CCCN2C(=O)OC[C@@H]2C(c2ccccc2)c2ccccc2)c1", "note": "[Example 72, (3-{3-[(4S)-4-(Diphenylmethyl)-2-oxo-1,3-oxazolidin-3-yl]propyl}phenoxy)acetic acid]", "values": [{"measurement": "IC50", "setting": "[1]", "value": 5.5, "unit": "nM"}]}, {"compound": "O=C(O)CCCOc1cccc(CCCn2nc(C(c3ccc(F)cc3)c3ccc(F)cc3)ccc2=O)c1", "note": "[Example 111, 4-[3-(3-{3-[Bis(4-fluorophenyl)methyl]-6-oxopyridazin-1(6H)-yl}propyl)phenoxy]butanoic acid]", "values": [{"measurement": "IC50", "setting": "[1]", "value": 18, "unit": "nM"}, {"measurement": "inhibition (%)", "setting": "[2]; dose 3 mg/kg p.o.", "value": 89, "unit": "%"}]}, {"compound": "O=C(O)CCCOc1cccc(CCCn2cc(C(c3ccc(F)cc3)c3ccc(F)cc3)ccc2=O)c1", "note": "[Example 112, 4-[3-(3-{5-[Bis(4-fluorophenyl)methyl]-2-oxopyridin-1(2H)-yl}propyl)phenoxy]butanoic acid]", "values": [{"measurement": "IC50", "setting": "[1]", "value": 24, "unit": "nM"}, {"measurement": "inhibition (%)", "setting": "[2]; dose 1 mg/kg p.o.", "value": 60, "unit": "%"}]}, {"compound": "O=C(O)CCCOc1cccc(CCCn2nc(C(c3ccccc3)c3ccccc3)ccc2=O)c1", "note": "[Example 69, 4-(3-{3-[3-(Diphenylmethyl)-6-oxopyridazin-1(6H)-yl]propyl}phenoxy)butanoic acid]", "values": [{"measurement": "IC50", "setting": "[1]", "value": 14, "unit": "nM"}]}, {"compound": "O=C(O)CCCOc1cccc(SCCn2cc(C(c3ccccc3)c3ccccc3)ccc2=O)c1", "note": "[Example 84, 4-[3-({2-[5-(Diphenylmethyl)-2-oxopyridin-1(2H)-yl]ethyl}sulfanyl)phenoxy]butanoic acid]", "values": [{"measurement": "IC50", "setting": "[1]", "value": 8.1, "unit": "nM"}, {"measurement": "inhibition (%)", "setting": "[2]; dose 3 mg/kg p.o.", "value": 100, "unit": "%"}]}, {"compound": "O=C(O)COc1cccc(CCCn2cc(-c3ccccc3-c3cccc4ccccc34)ccc2=O)c1", "note": "[Example 123, [3-(3-{5-[2-(1-Naphthyl)phenyl]-2-oxopyridin-1(2H)-yl}propyl)phenoxy]acetic acid]", "values": [{"measurement": "IC50", "setting": "[1]", "value": 7.6, "unit": "nM"}]}, {"compound": "NS(=O)(=O)c1cccc(C(=O)N(CCCc2cccc(OCC(=O)O)c2)CCC(c2ccccc2)c2ccccc2)c1", "note": "[Example 99, [3-(3-{[3-(Aminosulfonyl)benzoyl](3,3-diphenylpropyl)amino}propyl)phenoxy]acetic acid]", "values": [{"measurement": "IC50", "setting": "[1]", "value": 4.8, "unit": "nM"}]}, {"compound": "C[C@H](Oc1cccc(CCCn2nc(C(c3ccccc3)c3ccccc3)ccc2=O)c1)C(=O)O", "note": "[Example 59, (2S)-2-(3-{3-[3-(Diphenylmethyl)-6-oxopyridazin-1(6H)-yl]propyl}phenoxy)propanoic acid]", "values": [{"measurement": "IC50", "setting": "[1]", "value": 13, "unit": "nM"}, {"measurement": "inhibition (%)", "setting": "[2]; dose 3 mg/kg p.o.", "value": 93, "unit": "%"}]}, {"compound": "O=C(O)Cn1ccc2c(CCCn3cc(C(c4ccccc4)c4ccccc4)ccc3=O)cccc21", "note": "[Example 4, (4-{3-[5-(diphenylmethyl)-2-oxopyridin-1(2H)-yl]propyl}-1H-indol-1-yl)acetic acid]", "values": [{"measurement": "IC50", "setting": "[1]", "value": 3.6, "unit": "nM"}]}]}
